According to US20250387391A1, “A SOLUBLE GUANYLAT CYCLASE ACTIVATOR FOR TREATING CHRONIC VASCULAR DYSFUNCTION” (Charité - Universitätsmedizin Berlin, priority 2022, published 2025):
Where two headings read alike, the source gives them in different places.

Tests used:
[1] = tested on: liver fibrosis in two rat models; settings: cited from earlier work
[2] = tested on: ZSF1 rat model of type 2 diabetes mellitus (T2DM)-induced nephropathy; settings: cited from earlier work
[3] = in vivo; cited from earlier work
[4] = tested on: patients with ADHF; settings: intravenously administered; cited from earlier work
[5] = tested on: intraocular pressure; settings: animal models; cited from earlier work
[6] = tested on: sGC; settings: cited from earlier work
[7] = humans; cited from earlier work
[8] = preclinical species; cited from earlier work
[9] = in vivo; cited from earlier work; remark: listed apart in the source
[10] = tested on: patient with ME/CFS; settings: single patient, history of Giardia Lamblia infection, ME/CFS for 10 years; cited from earlier work
[11] = tested on: endothelial dysfunction (ED) models; settings: preclinical ED models and HF patients; cited from earlier work
[12] = tested on: post-infectious ME/CFS patients
[13] = tested on: healthy subjects; settings: cited from earlier work
[14] = tested on: subjects with heart failure with reduced ejection fraction (HfrEF); settings: initial dose 2.5 mg, titrated to 10 mg at two-week intervals; cited from earlier work
[15] = tested on: NT-proBNP; settings: cited from earlier work
[16] = tested on: isolated sGC; settings: cited from earlier work
[17] = tested on: platelet aggregation; settings: via stimulation of cGMP synthesis; cited from earlier work
[18] = Vericiguat Pool (2.5 mg, 2.5 to 5 mg, 2.5 to 10 mg groups)

In the case of `O=C(O)CCCCN(CCc1cc(F)ccc1OCc1ccc(-c2ccc(C(F)(F)F)cc2)cc1)Cc1ccc(C(=O)O)cc1` [BAY 60-2770, 4-({(4-carboxy-butyl)[2-(5-fluoro-2-{[4′-(trifluoromethyl)biphenyl-4-yl]methoxy}phenyl)ethyl]amino}methyl)benzoic acid], the Liver fibrosis [1] is listed as “attenuates liver fibrosis”.
For `Cc1ccc(OCc2ccc(C(=O)N3CCCCC3)cc2C)c(-c2csc(C3CC4CCC(C3)C4C(=O)O)n2)c1` (stereo not shown) [BI 703704], the In vivo activity [2] is listed as “displaying in vivo activity”.
For `Fc1ccccc1Cc1nc(-c2nc(C(F)(F)F)n[nH]2)cn2ccnc12` [CY6463], the “Crossing of the blood-brain barrier” value [3] is given as “readily crosses the blood-brain barrier”.
For `O=C(O)CCCCN(CCc1ccccc1OCc1ccc(CCc2ccccc2)cc1)Cc1ccc(C(=O)O)cc1` [Cinaciguat], the Hemodynamic effect [4] is listed as “potent unloading of the heart with arterial vasodilation”.
In the case of `Cc1cc(C2CCN(C(=O)C3CC3)CC2)ccc1NC1CCc2cccc(-c3cccc(-n4ncc(C(=O)O)c4C)n3)c21` (stereo not shown) [MGV354], the Intraocular pressure [5] is listed as “significantly lowered intraocular pressure”.
In the case of `[N]=O` [NO, nitric oxide], the “Increase of sGC activity” value [6] is listed as “about 200 fold”.
In the case of `OC(CNc1nc(-c2cc(-c3ccon3)n(Cc3ccccc3F)n2)ncc1F)(C(F)(F)F)C(F)(F)F` [Praliciguat], the Pharmacokinetic half-life [7] is given as “consistent with QD dosing”, the Clearance route [8] is given as “mainly hepatic clearance” and the Half-life [8] is given as “long half-life”. The Tissue distribution [8] was “extensive tissue distribution”.
For `COC(=O)N(C)c1c(N)nc(-c2nn(Cc3ccccc3F)c3ncccc23)nc1N` [Riociguat], the “Risk of anemia as side effect” value [9] is given as 7.8% and the “Symptoms of ME/CFS” value [10] is given as “some improvement in symptoms”.
For `COC(=O)Nc1c(N)nc(-c2nn(Cc3ccccc3F)c3ncc(F)cc23)nc1N` [Vericiguat], the Vascular function [11] is listed as “restores vascular function”, the “Risk of anemia as side effect” value [9] is listed as 1.9% and the Cognitive function ([12]; 1st patient) is listed as “improved”. For the same compound, the “Sensitivity to light and noise” value ([12]; 1st patient) was “less sensitivity to light and noise”, the Fatigue ([12]; 1st patient (ME/CFS triggered by COVID), 5 mg) was “improved” and the “Activity without getting PEM” value ([12]; 1st patient, 5 mg) was “much more activity was possible without getting PEM”. The “Quality of life, according to the patient” value ([12]; 2nd patient) was “significantly improved”, the “Effect of treatment (mainly cognitive)” value ([12]; 2nd patient (postinfectious ME/CFS, Bell of 20), 2.5 mg) was “only a minor positive effect” and the Cognitive ability ([12]; 2nd patient, 5 mg, over a period of a few weeks) was “increase in cognitive ability”. The “Feeling of being sick” value ([12]; 2nd patient, compared to prior to treatment) was “reduced”, the Headaches ([12]; 2nd patient, before medication about 3 days a week) was “almost completely disappeared” and the “Ability for cognitive work without triggering PEM” value ([12]; 2nd patient, increased from 1 h) was “more than 2 hours”. For the same compound, the Headaches ([12]; 3rd patient) was “disappeared”, the Muscle fasciculation ([12]; 3rd patient) was “decreased” and the Sensitivity to noise ([12]; 3rd patient) was “improved”. The Fatigue ([12]; 3rd patient (ME/CFS triggered by COVID), 2 weeks of 5 mg) was “improved”, the Ability to work ([12]; 3rd patient, increased from 1) was 2 to 3 h and the “Drop in blood pressure” value ([12]; human, in vivo) was “no significant drop in blood pressure”. The “Effect on blood pressure” value ([12]; human, in vivo) was “almost no effect on blood pressure”, the Tolerability ([12]; human, in vivo) was “very good” and the PK interaction profile ([13]; estimated in in vitro studies, confirmed in healthy subjects) was “low”. The “Severity of most treatment-emergent adverse events” value ([13]; human, in vivo) was “mild-to-moderate severity”, the “Tolerability in clinical studies” value ([13]; human, in vivo) was “well-tolerated” and the “Efficacy in terms of cardiovascular mortality and HF hospitalization” value [14] was “superior to placebo”. The “Difference of Means vs Placebo - log scale, change in log transformed NT-proBNP from baseline to week 12” value ([15]; 1.25 mg) was 0.0151 log [pg/mL], the “Ratio of Geometric Means vs Placebo - Back Transformed, NT-proBNP baseline to week 12” value (shortened to “Ratio of Geometric Means vs Placebo”) ([15]; 1.25 mg) was 1.015 and the “Reduction in NT-proBNP at 12 weeks compared to placebo” value ([15]; 2.5 mg titrated at two-week intervals to 10 mg, p=0.0483) was “greatest reduction”. For the same compound, the “Difference of Means vs Placebo - log scale, change in log transformed NT-proBNP from baseline to week 12” value ([15]; 2.5 mg) was −0.0396 log [pg/mL], the “Ratio of Geometric Means vs Placebo” value ([15]; 2.5 mg) was 0.961 and the “Difference of Means vs Placebo - log scale, change in log transformed NT-proBNP from baseline to week 12” value ([15]; 2.5 to 5 mg) was −0.0731 log [pg/mL]. For the same compound, the “Ratio of Geometric Means vs Placebo” value ([15]; 2.5 to 5 mg) was 0.930, the “Difference of Means vs Placebo - log scale, change in log transformed NT-proBNP from baseline to week 12” value ([15]; 2.5 to 10 mg) was −0.2494 log [pg/mL] and the “Ratio of Geometric Means vs Placebo” value ([15]; 2.5 to 10 mg) was 0.779. For the same compound, the “Difference of Means vs Placebo - log scale, change in log transformed NT-proBNP from baseline to week 12” value [15, 18] was −0.1220 log [pg/mL], the “Ratio of Geometric Means vs Placebo” value [15, 18] was 0.885 and the “Secondary analysis: reduction of NT-proBNP at 12 weeks” value ([15]; across vericiguat doses) was “dose-response relationship”. For the same compound, the “Primary efficacy endpoint, change from baseline in log-transformed NT-proBNP vs placebo” value ([15]; pooled vericiguat group, 12 weeks) was “not significantly different”.
For `OCc1ccc(-c2nn(Cc3ccccc3)c3ccccc23)o1` [YC-1], the “Effect on sGC when combined with NO-releasing compounds” value [16] is given as “strong synergistic effect”, the “sGC stimulation after oxidation or removal of the prosthetic heme moiety” value [16] is given as “loss of stimulation” and the Platelet aggregation [17] is given as “inhibiting platelet aggregation”.
